The text below walks through data of patent publication US8962608B2, “Cycloalkylnitrile pyrazole carboxamides as janus kinase inhibitors” (Merck Sharp & Dohme Corp., priority 2011, dated 2015).

In test [1] the target is JAK1 (recombinant purified GST-tagged catalytic domain) (Homo sapiens (Human), UniProt P23458).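 Note: biochemical assay with HTRF read-out.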
The target in test [2] is JAK2 (recombinant purified GST-tagged catalytic domain) (Homo sapiens (Human), UniProt O60674).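 Note: biochemical JAK kinase assay with HTRF detection.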
JAK2 (recombinant purified GST-tagged catalytic domain), sequence (O60674 849-1124): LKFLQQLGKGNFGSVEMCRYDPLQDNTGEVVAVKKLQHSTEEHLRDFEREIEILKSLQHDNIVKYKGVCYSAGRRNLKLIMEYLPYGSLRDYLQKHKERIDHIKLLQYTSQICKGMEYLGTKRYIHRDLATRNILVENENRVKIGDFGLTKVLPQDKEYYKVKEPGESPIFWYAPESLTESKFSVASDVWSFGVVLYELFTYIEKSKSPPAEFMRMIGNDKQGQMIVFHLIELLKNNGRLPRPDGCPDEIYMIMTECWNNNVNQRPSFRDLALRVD

JAK1 (recombinant purified GST-tagged catalytic domain), sequence (P23458 875-1153): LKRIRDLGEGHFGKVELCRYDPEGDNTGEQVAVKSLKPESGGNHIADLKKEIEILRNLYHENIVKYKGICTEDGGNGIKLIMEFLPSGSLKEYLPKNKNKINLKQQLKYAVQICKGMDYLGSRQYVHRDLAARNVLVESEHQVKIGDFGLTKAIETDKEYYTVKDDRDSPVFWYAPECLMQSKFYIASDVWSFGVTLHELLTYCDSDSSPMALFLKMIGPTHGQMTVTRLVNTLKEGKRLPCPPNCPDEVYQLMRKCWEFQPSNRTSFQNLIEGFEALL

Consider `COC(=O)[C@H]1CCC(n2cc(C(N)=O)c(Nc3ccc(F)cc3)n2)[C@@H](C#N)C1` (stereo partly drawn) [Example 7-2], for which the IC50 – broadly, the point on the concentration scale where inhibition reaches its midpoint – is 14 nM in test [1] and 101 nM in test [2].

On to `CC1CCC(C#N)C(n2cc(C(N)=O)c(Nc3ccccc3)n2)C1` (stereo not drawn) [Example 11-6, 1-(2-cyano-5-methylcyclohexyl)-3-(phenylamino)-1H-pyrazole-4-carboxamide], for which the IC50 was 7 nM in test [1] and 38 nM in test [2].

On to `N#C[C@@H]1CCCC(F)[C@@H]1n1cc(C(N)=O)c(Nc2ccccc2)n1` (stereo partly drawn) [Example 23-2], for which the results for the IC50 in test [1] and in test [2] were 67 nM and 212 nM, respectively.

Take `COCCN[C@H]1CCC(n2cc(C(N)=O)c(Nc3ccc(S(=O)(=O)C(F)(F)F)cc3)n2)[C@@H](C#N)C1` (stereo partly drawn) [Example 27-16, 1-{(1S,2S,4S and1R,2R,4R)-2-cyano-4-[(2-methoxyethyl)amino]cyclohexyl}-3-({4-[(trifluoromethyl)sulfonyl]phenyl)amino)-1H-pyrazole-4-carboxamide]: the IC50 in test [1] turned out to be 1 nM; in test [2], 35 nM.

Regarding `CC[N+]1([C@H]2CC[C@H](n3cc(C(N)=O)c(Nc4ccc(Cl)cc4)n3)[C@@H](C#N)C2)CCC1` [Example 31-3, 1-[(1S,3S,4S)-4-{4-carbamoyl-3-[(4-chlorophenyl)amino]-1H-pyrazol-1-yl}-3-cyanocyclohexyl]-1-ethylazetidinium], the half-inhibitory concentration (IC50) in test [1] was 1 nM; in test [2], 28 nM.

For the compound `CC1(C)C[N+](C)([C@H]2CC[C@H](n3cc(C(N)=O)c(Nc4ccc(Cl)cc4)n3)[C@@H](C#N)C2)C1` [Example 31-4, 1-[(1S,3S,4S)-4-{4-carbamoyl-3-[(4-chlorophenyl)amino]-1H-pyrazol-1-yl}-3-cyanocyclohexyl]-1,3,3-trimethylazetidinium], the IC50 came to 1 nM in test [1] and 34 nM in test [2].
